In US5641746A, “Animal model for AIDS” (Rutgers State University of New Jersey, priority 1994, dated 1997):

Key:
HIV = conditions: in vitro; cited from earlier work
[1] = test system: gp120 binding to brain tissue; conditions: in vitro; cited from earlier work
[2] = test system: neurotoxic effects of gp120; conditions: on cells and in animals; cited from earlier work
rats = experiment: Intrathecal VIP in rats; format: in vivo, rat
Procedure: Each animal was treated with VIP or Ringer's solution in a counterbalanced fashion. […] At a dose of 25 ug VIP/5 ul (5 ug/ul), there were 4 of 6 documented deaths. At 60 ug VIP/5 ul (12 ug/ul), there were 3 of 5 documented deaths.

[3] = test system: intracellular free calcium; conditions: cited from earlier work

Row | Compound | Effect on HIV replication in cell culture (HIV) | Effect on binding of gp120 [1] | Effect on the neurotoxic effects of gp120 [2] | Documented deaths (rats; 25 ug VIP/5 ul (5 ug/ul) IT) | Documented deaths (rats; 60 ug VIP/5 ul (12 ug/ul) IT) | Morbidity (rats; IT VIP) | Symptoms shown by all VIP-treated animals (rats; IT VIP, all doses) | Concentration shown to be effective to induce the desired symptoms (rats; IT, rats) [µg/µL] | AIDS-like symptoms in addition to neurological deficit (rats; VIP 25 ug/5 ul (5 ug/ul) IT) | Effect on gp 120-CD4 induced increase of intracellular free calcium [3]
1 | Vasoactive Intestinal Peptide [VIP] | inhibit | inhibit | potently inhibit | 4 of 6 | 3 of 5 | morbidity was observed | diarrhea, weight loss, monoparesis, lower limb deficits and mucous secretions | 2.55 to 12 | diarrhea, hind limb rigidity and damage to spinal tissue | 
2 | COCCOC(=O)C1=C(C)NC(C)=C(C(=O)OC(C)C)C1c1cccc([N+](=O)[O-])c1 (stereo not shown) [nimodipine] |  |  |  |  |  |  |  |  |  | antagonize this effect
